Values joined by “and” are separate entries in the source; they are usually repeats but may differ in a detail not shown here. Equal entries are not always repeated. Where a SMILES comes first, the peptide text is derived from it. Bridges are numbered along the chain shown (N, C = ends). The star is where a group is joined. DOTA = O=C(O)CN1CCN(CC(=O)O)CCN(CC(=O)*)CCN(CC(=O)O)CC1
How the values were obtained:
[1] = target: T1, ADAMTS4 in the aneurysmal aortic wall of ApoE−/− mice (Mus musculus, UniProt Q8BNJ2); experiment: In vivo MRI, longitudinal study (1 week after aneurysm induction); conditions: longitudinal group, 1 week after AngII, n = 12; one line per mouse
T1 construct: from tissue
T1 sequence (Q8BNJ2 209-833): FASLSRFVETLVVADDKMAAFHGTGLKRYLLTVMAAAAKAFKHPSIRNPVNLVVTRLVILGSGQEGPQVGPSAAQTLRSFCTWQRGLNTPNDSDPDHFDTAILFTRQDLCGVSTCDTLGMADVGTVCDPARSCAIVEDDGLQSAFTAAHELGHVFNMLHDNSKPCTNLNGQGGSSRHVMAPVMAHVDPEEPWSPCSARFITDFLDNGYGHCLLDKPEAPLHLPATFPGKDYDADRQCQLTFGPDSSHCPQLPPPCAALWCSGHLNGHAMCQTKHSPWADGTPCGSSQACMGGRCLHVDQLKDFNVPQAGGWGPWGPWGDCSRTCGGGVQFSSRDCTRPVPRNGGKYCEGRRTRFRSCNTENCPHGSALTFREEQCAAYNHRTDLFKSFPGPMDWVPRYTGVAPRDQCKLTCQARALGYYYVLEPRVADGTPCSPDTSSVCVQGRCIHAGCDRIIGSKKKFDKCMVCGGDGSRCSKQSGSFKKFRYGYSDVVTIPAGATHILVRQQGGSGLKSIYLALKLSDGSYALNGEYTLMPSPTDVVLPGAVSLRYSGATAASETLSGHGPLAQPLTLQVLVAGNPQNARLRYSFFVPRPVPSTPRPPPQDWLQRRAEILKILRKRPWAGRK
Protocol: The longitudinal study includes an MR imaging session 1 week after aneurysm induction (n = 12) with the administration of the ADAMTS4-specific probe. Animals were then followed up for 4 weeks to evaluate the potential of the probes for the prediction of aneurysm progression. After 4 weeks, mice were sacrificed, and aortas excised.
MR imaging was performed using a clinical 3 T Siemens system (Biograph, Siemens Healthcare Solutions, Erlangen, Germany). The system was equipped with a 4-channel receive-coil array for mouse body applications (Mouse Heart Array, P-H04LE-030, Version 1, Rapid Biomedical, Germany). Following anesthesia injection, the animals were positioned in a prone position, and body temperature (37 °C) was monitored using an MR-compatible heating system (Model 1025, SA Instruments Inc, Stony Brook, NY) to avoid rapid cooling. […]
Analysis of resulting MR images was performed using OsiriX (version 7.1, OsiriX Foundation, Bernex, Switzerland). […] In order to assess the signal intensities, regions of interest (ROIs) were measured as areas of signal enhancement, which were co-localized with areas of aneurysmal-aortic tissue. For these areas, the CNR was calculated using the following formula: CNR = (Combined vessel-wall and aneurysmal-aortic-tissue-signal − blood-signal)/standard-deviation-signal (noise). […]

[2] = Gadolinium in the aortic wall by ICP-MS; type: in vivo, mouse; conditions: ICP-MS of digested aorta after probe administration; individual mice, n = 7
Protocol: The samples were dissolved with 12 ml ultrapure water.

[3] = target: T2, ADAMTS4 in the aortic wall of ApoE−/− mice (Mus musculus, UniProt Q8BNJ2); experiment: In vivo MRI with negative control probe and ADAMTS4-specific probe; conditions: for CNR post administration, individual animals: d1 = negative control probe, d2 = ADAMTS4-specific probe, 0.13 mmol/kg
T2 construct: from tissue
T2 sequence (Q8BNJ2 209-833): T1 sequence (Q8BNJ2 209-833)
Protocol: In vivo MR imaging was performed in 6 ApoE^−/− mice (n = 6): three mice (n = 3) received AngII through the osmotic minipumps, three mice (n = 3) received saline, serving as the control group. MR imaging was performed 4 weeks after minipump implantation. On day 1, a native MR scan was followed by the intravenous injection of the negative control peptide (0.13 mmol/kg) and a subsequent MR scan. 24 h later, mice were imaged prior to and following the intravenous administration of the ADAMTS4-specific probe (0.13 mmol/kg).
(§1) Analysis of resulting MR images was performed using OsiriX (version 7.1, OsiriX Foundation, Bernex, Switzerland). All morphometric measurements were conducted on high-resolution MRI images. In order to assess the signal intensities, regions of interest (ROIs) were measured as areas of signal enhancement, which were co-localized with areas of aneurysmal-aortic tissue. For these areas, the CNR was calculated using the following formula: CNR = (Combined vessel-wall and aneurysmal-aortic-tissue-signal − blood-signal)/standard-deviation-signal (noise). The signal of noise was defined as the standard deviation in pixel intensity from an ROI placed in the background air anterior to the aorta.

[4] = target: T2, ADAMTS4 in the aortic wall of ApoE−/− mice; experiment: In vivo MRI, early detection study (days 2, 4, 10); conditions: for ADAMTS4-MRI signal (CNR): day 4 of AngII
Protocol: For the early detection study, we used an AAA group (n = 20). MR imaging was performed after 2, 4, and 10 days of AngII-infusion. At each time point, mice were scanned prior to and following the administration of the ADAMTS4-specific probe (0.13 mmol/kg body weight). On day 28 post implantation, only native imaging was performed and subsequently, the aortic samples were excised.
MR imaging was performed using a clinical 3 T Siemens system (Biograph, Siemens Healthcare Solutions, Erlangen, Germany). The system was equipped with a 4-channel receive-coil array for mouse body applications (Mouse Heart Array, P-H04LE-030, Version 1, Rapid Biomedical, Germany). Following anesthesia injection, the animals were positioned in a prone position, and body temperature (37 °C) was monitored using an MR-compatible heating system (Model 1025, SA Instruments Inc, Stony Brook, NY) to avoid rapid cooling. For intravenous administration of the molecular probe, venous access was established using a small diameter tube with an attached 30 G cannula. The imaging protocol included the following sequences:
After a three-dimensional (3D) gradient-echo scout scan, a non-contrast-enhanced two-dimensional time-of-flight angiography (2D TOF) was acquired in transverse orientation for visualization of the abdominal aorta with the following parameters: field of view (FOV) of […], a matrix of 960 × 960, resolution of 0.2 × 0.2 × 0.5 mm, 40 slices, repetition time (TR)/echo time (TE) of 35 ms/4.44 ms, flip angle of 90°, and bandwidth of 124 Hz/Px. A maximum intensity projection (MIP) was then automatically generated to obtain an arterial angiogram of the abdominal aorta for planning the subsequent MR angiography and delayed-enhancement scans. A 2D inversion time (TI) scout sequence, planned perpendicular to the abdominal aorta, was used to determine the optimal TI for blood-signal nulling. Acquisition parameters were as follows: for the 2D TI sequence—FOV 340 × 340 mm, matrix 576 × 576, spatial resolution 0.6 × 0.6 × 3 mm, TR/TE 44.91 ms/2.09 ms, flip angle 35°, bandwidth 579 Hz/Px, TR between subsequent IR pulses 1000 ms; and for the high-resolution 3D IR FLASH sequence—FOV 57 × 57 mm, matrix 384 × 384, spatial resolution = 0.1 × 0.1 × 0.3 mm, 56 slices, TR/TE = 1019.72/7.02 ms, flip angle 30°, bandwidth 130 Hz/px, TR between subsequent IR pulses = 1000 ms.
as §1

[5] = Biodistribution and blood clearance by ICP-MS of Gd
[6] = male ApoE−/− mice, i.v., n = 3 per time point

SMILES: N=C(N)NCCC[C@@H]1NC(=O)[C@H](CCCNC(=N)N)NC(=O)[C@H](CO)NC(=O)[C@@H](N)CSSC[C@@H](C(=O)N[C@@H](CO)C(=O)NCC(=O)NCC(=O)N[C@@H](CO)C(=O)NCC(=O)NCC(=O)N[C@@H](CCCCNC(=O)CN2CCN(CC(=O)O)CCN(CC(=O)O)CCN(CC(=O)O)CC2)C(=O)NCC(N)=O)NC(=O)CNC1=O (Gd complex, metal not drawn) [ADAMTS4-specific probe] (H-CSRRGCSGGSGGK(DOTA)G-NH2; disulfide 1-6)
- CNR post administration, individual animals [1]: 10.17 and 7.35 and 11.97 and 12.63 and 7.15 and 7.46 and 7.27 and 8.85 and 11.26 and 15.46 and 7.57 and 11.23
- Gd amount in the aortic wall [2]: 38.015 ng/kg and 35.695 ng/kg and 62.7086 ng/kg and 32.3631 ng/kg and 8.118 ng/kg and 16.4033 ng/kg and 11.8689 ng/kg
- increase in MR signal / CNR in the aortic wall, in words ([3]; 0.13 mmol/kg i.v., 4 weeks after minipump implantation, n = 6): strong and significant increase
- CNR post administration, individual animals ([3]; AAA (AngII) mice): 10.87 and 12.24 and 11.33
- CNR post administration, individual animals ([3]; control (c, saline) mice): 6.48 and 5.75 and 6.1
- ROC curve area for prediction of a fatal AAA rupture ([4]; ADAMTS4-MRI level after 4 days): 0.96
- sensitivity for prediction of a fatal AAA rupture (ROC) ([4]; ADAMTS4-MRI level after 4 days): 0.88
- specificity for prediction of a fatal AAA rupture (ROC) ([4]; ADAMTS4-MRI level after 4 days): 0.9
- ADAMTS-4 levels (CNR) ([4]; day 4, subgroup n = 4 without significant outward remodeling on MRI): 11.7±0.8
- ADAMTS4-MRI signal (CNR) ([4]; animals that developed an AAA and survived for 4 weeks): 10.3 ± 1.1
- ADAMTS4-MRI signal (CNR) ([4]; animals that did not develop an AAA): 6.9 ± 1.2
- ADAMTS4-MRI signal (CNR) ([4]; animals with fatal AAA rupture): 15.2 ± 0.7
- time of highest aortic uptake after intravenous injection ([5]; ApoE−/− mice): 15 min
- blood clearance ([5]; ApoE−/− mice, i.v., over 120 min): rapid blood clearance
- Gd levels in kidneys and urine [5, 6]: Higher levels of Gd
- gadolinium uptake in liver, lung, spleen, heart and muscle [5, 6]: low gadolinium uptake

From paper PMC9126943, “ADAMTS4-specific MR probe to assess aortic aneurysms in vivo using synthetic peptide libraries” (Nature Communications, 2022)
